Series [1] is described as follows: Stability in mouse liver microsomes. It counts as in vitro ADME. The method, then:
Mouse Liver Microsome Assays. These assays were carried out as detailed previously.
A general note: Liver microsomes are a subcellular fraction often used to study metabolism.

For series [2], the system named is MDR1. As to the kind of experiment: MDR1-MDCK permeability. To be noted: dog; for efflux ratio at 120 min, 5 μM: MDCK-MDR1, pH 7.4; for recovery at 120 min, 5 μM: MDCK-MDR1, pH 7.4, Recovery (%), pH 7.4, 120 minutes. As for the experimental part:
(§1) MDR1-MDCK Permeability. Pharmacokinetic experiments with compounds were performed by Absorption Systems (Exton, PA, USA). MDR1-MDCK cell monolayers were grown to confluence on collagen-coated, microporous membranes in 12-well assay plates. The permeability assay buffer was Hanks’ balanced salt solution containing 10 mM HEPES and 15 mM glucose at a pH of 7.4. The buffer in the receiver chamber also contained 1% bovine serum albumin. The dosing solution concentration was 5 […]
(§2) μM of test article in the assay buffer. Cell monolayers were dosed on the apical side (A-to-B) or basolateral side (B-to-A) and incubated at 37°C with 5% CO2 in a humidified incubator. Samples were […]
(§3) chambers at 0 and 120 minutes; samples were taken from the receiver chambers at 120 minutes. Each determination was performed in duplicate. The flux of lucifer yellow was also measured post-experimentally for each monolayer to ensure no damage was inflicted to the cell monolayers during the flux period. All samples were assayed by LC-MS/MS using electrospray ionization. Analytical conditions were carried out as previously described (REF:Journigan ACS CN 2020). The apparent permeability (Papp) and percent recovery were calculated as follows:
(§4) Papp = (dCr /dt) × Vr/(A × C0) (1)
(§5) Percent Recovery = 100 × ((Vr × Crfinal) + (Vd × Cd final))/(Vd × C0) (2) […]
(§6) dCr /dt is the slope of the cumulative receiver concentration versus time in M sµ -1;
(§7) Vr is the volume of the receiver compartment in cm3;
(§8) Vd is the volume of the donor compartment in cm3;
(§9) A is the area of the insert (1.13 cm2 for 12-well);
(§10) C0 is the measured concentration of the donor chamber at time 0 in μM;
(§11) Crfinal is the cumulative receiver concentration in μM at the end of the incubation period; Cdfinal is the concentration of the donor in μM at the end of the incubation period.
(§12) Efflux ratio (ER) is defined as Papp (B-to-A) / Papp (A-to-B).
(§13) Brain Penetration Potential Classification:
(§14) Papp (A-to-B) ≥ 3.0 and ER < 3.0: High
(§15) Papp (A-to-B) ≥ 3.0 and 10 > ER ≥ 3.0: Moderate

The target in series [3] is T1, mouse α4β2 nAChRs (Mus musculus, UniProt O70174+Q9ERK7).
T1 construct: expressed in transfected cells; host or cells: mouse neuroblastoma-2a (neuro-2a) cells, transient transfection with Lipofectamine 3000
The experiment in a line: Calcium 6 Ca2+ flux assay, neuro-2a cells transiently transfected with α4β2 nAChRs. In kind it is cell-based. For orientation: A change in cytosolic calcium serves as a functional read-out for many receptors and channels.

For series [4] the following is noted: reported; ref 1 (supplement); cited from earlier work.
The test system of series [5] is C57BL/6J mice. As to the kind of experiment: Conditioned place preference (CPP) assay. In kind it is in vivo, mouse. As for the experimental part: CPP assays were completed in a three-chamber spatial place preference chamber (Harvard Apparatus, PanLab, dimensions: 47.5 × 27.5 × 47.5 cm) using male and female C57BL/6J mice. Time in chambers was recorded by motion tracking software (SMART 3.0). […] On day 1, a pre-test was completed wherein mice were placed in the central chamber and allowed free access to the apparatus for 20 min. Mice that spent >65% of the test in one chamber were excluded and the remaining mice were counterbalanced. For counterbalancing, mice were separated into groups of approximately equal bias, similar to previously published CPP methods. No exclusions were necessary for these studies. Following counterbalancing, no initial biases were noted. The mice received their designated drug injections on days 2, 4, 6, and 8, and received saline injections on days 3, 5, 7, and 9. Each conditioning period lasted 20 min. On day 10, a post-test was completed whereby the mice were again placed in the central chamber and allowed free access for 20 min. In total, 5 male and 5 female C57BL/6J mice, 3–5 months old, were used in the CPP assays for each treatment group. Time spent in the saline-paired chamber was subtracted from time spent in the drug-paired chamber to score the pre-test and post-test. CPP score (or change from baseline) was determined by subtracting the pre-test score from the post-test score. A significant positive CPP score is indicative of reward-related behavior, while a significant reduction is indicative of aversion-related behavior.
No sex differences were observed and data for males and females were combined (see Results for specifics). Data are expressed as a change in baseline preference, which was analyzed using a one-way ANOVA with a post hoc Tukey.

Series [6] has as its system hTRPM8. Further details: method as in PMID 31850745. To be noted: cited from earlier work.
Series [7] deals with MDR1-MDCK cell monolayers. As to the kind of experiment: in vitro. As for the experimental part: as §1, §2, §3, §4, §5, §6, §7, §8, §9, §10, §11, §12, §13, §14, §15
Setting [8] is: in the presence of 100 µM nicotine.

Molecules are shown by their SMILES. Where two headings read alike, the source gives them in different places.

T1 sequence (O70174 31-629): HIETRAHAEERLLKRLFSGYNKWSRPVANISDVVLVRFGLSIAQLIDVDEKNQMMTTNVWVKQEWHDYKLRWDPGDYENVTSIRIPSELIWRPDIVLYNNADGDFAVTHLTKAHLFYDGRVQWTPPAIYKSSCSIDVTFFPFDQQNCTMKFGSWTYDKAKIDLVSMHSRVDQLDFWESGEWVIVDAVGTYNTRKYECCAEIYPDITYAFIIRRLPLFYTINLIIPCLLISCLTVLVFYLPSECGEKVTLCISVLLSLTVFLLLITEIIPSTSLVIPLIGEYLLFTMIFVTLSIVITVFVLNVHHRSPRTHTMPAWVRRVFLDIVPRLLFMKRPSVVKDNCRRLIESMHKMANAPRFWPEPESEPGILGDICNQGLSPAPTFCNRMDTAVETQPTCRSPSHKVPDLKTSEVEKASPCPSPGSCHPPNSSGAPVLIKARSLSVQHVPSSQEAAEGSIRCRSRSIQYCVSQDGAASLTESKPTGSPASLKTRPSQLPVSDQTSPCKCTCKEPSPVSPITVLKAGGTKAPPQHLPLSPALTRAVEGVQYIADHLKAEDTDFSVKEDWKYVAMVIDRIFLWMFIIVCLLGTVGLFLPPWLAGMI
T1 sequence (Q9ERK7 26-501): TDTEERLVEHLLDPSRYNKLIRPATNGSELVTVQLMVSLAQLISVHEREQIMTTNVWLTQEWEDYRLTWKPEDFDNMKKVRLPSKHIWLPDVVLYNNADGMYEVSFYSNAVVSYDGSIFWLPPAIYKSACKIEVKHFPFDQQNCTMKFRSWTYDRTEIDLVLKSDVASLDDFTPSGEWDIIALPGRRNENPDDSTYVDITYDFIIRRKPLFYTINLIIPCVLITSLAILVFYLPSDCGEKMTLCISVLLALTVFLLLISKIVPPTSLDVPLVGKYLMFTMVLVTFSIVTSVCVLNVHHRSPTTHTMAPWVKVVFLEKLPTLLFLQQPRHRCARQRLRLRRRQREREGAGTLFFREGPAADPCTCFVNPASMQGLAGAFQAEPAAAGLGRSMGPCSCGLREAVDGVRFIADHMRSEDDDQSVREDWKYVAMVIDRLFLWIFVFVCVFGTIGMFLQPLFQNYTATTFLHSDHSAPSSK

`C[C@]12CC[C@H]3[C@@H](CCC4=CC(=O)CC[C@@]43C)[C@@H]1CC[C@@H]2O` [testosterone, reference compound] returned a half-life in series [1] (mouse liver microsomes) of 4.58 min. In series [1] (mouse liver microsomes, read-out: CLint), the microsomal CLint was 302 µL/min/mg.

In the case of `C[C@H]1O[C@@H](O[C@H]2[C@@H](O)C[C@H](O[C@H]3[C@@H](O)C[C@H](O[C@H]4CC[C@@]5(C)[C@H](CC[C@@H]6[C@@H]5C[C@@H](O)[C@]5(C)[C@@H](C7=CC(=O)OC7)CC[C@]65O)C4)O[C@@H]3C)O[C@@H]2C)C[C@H](O)[C@@H]1O` [digoxin, reference compound], the efflux ratio at 120 min, 5 μM in series [2] came to 299. In addition, the Papp at 120 min, 5 μM in series [2] (MDCK-MDR1, pH 7.4, Papp average, A-to-B, 5 μM) was determined as 0.0612 ×10⁻⁶ cm/s; in series [2] (MDCK-MDR1, pH 7.4, Papp average, B-to-A, 5 μM) it was 18.3 ×10⁻⁶ cm/s.

Turning to `O=C(NC(C1CCCCC1)C1CCCCC1)c1ccc(-c2ccccc2)cc1` [VBJ098], the “activity as an agonist, PM, or antagonist” value in series [3] (α4β2 nAChRs) is “no activity”.

With `CN1CCC[C@H]1c1cccnc1` [nicotine, Nicotine ditartrate dihydrate, reference compound], the “T1/2 of nicotine in mice” value in series [4] is 6 to 7 min. In series [5] (0.5 mg/kg nicotine, males and females combined, post hoc Tukey), the “place preference (in words)” value was “significant place preference”. Also, the CPP score was found to be 127.5 in series [5] (female mice, 0.5 mg/kg nicotine, intraperitoneal) and 131.2 in series [5] (male mice, 0.5 mg/kg nicotine, intraperitoneal).

As for `O=C(NC1CCC2CCCCC2C1)c1ccc(-c2ccccc2)cc1` (stereo not drawn) [VBJ104], the Emax in series [3] (N2a, read-out: Max Efficacy (Normalized to 100 µM Nicotine), in the presence of 100 µM nicotine, mean ± SEM) stood at 361%. For the same compound, the “concentration at which maximum increase occurs” value in series [3] (setting [8]) stood at 100 µM. In addition, the “Max Efficacy (Normalized to 100 µM Nicotine)” value in series [3] (in the presence of 100 µM nicotine, mean ± SEM) amounted to 360.7 ± 37.7%. In series [1] (mouse, microsomes), this compound showed a half-life of 11.3 min, a microsomal CLint of 122 µL/min/mg, a share remaining at 0 h of 100% and an amount remaining at 10 min of 40.8%. In series [1] (mouse, microsomes), this compound had a fraction remaining at 20 min of 30.7%, a fraction remaining at 0.5 h of 22.5% and a share remaining at 1 h of 10.3%. The half-maximal inhibitory concentration (IC50) in series [6] was 6 ± 1 nM. Also, in series [7] (MDCK-MDR1), the “Brain Penetration Classification” value was “Low” and the “MDR1-MDCK permeability efflux ratio (in words)” value is “low”. In series [7] (dog, MDCK-MDR1, 120 min, 5 μM, pH 7.4), the Papp average is 1.22 10-6 cm/s. For the same compound, in series [2], the efflux ratio at 120 min, 5 μM was found to be 0.685. This compound gave an apparent permeability coefficient (Papp) at 120 min, 5 μM in series [2] (MDCK-MDR1, pH 7.4, Papp R2) of 1.67 ×10⁻⁶ cm/s. The Papp at 120 min, 5 μM in series [2] (MDCK-MDR1, pH 7.4, Papp average) worked out at 1.79 ×10⁻⁶ cm/s. This compound came in with a recovery at 120 min, 5 μM in series [2] (A-to-B, 5 μM) of 70.8%. In addition, in series [2] (B-to-A, 5 μM), the recovery at 120 min, 5 μM stood at 86.9%. Further, the “reward-related behavior (in words)” value in series [5] (0.5 mg/kg nicotine plus 0.5 mg/kg VBJ104, compared to nicotine, p < 0.05) was “significant increase in reward-related behavior”. Moreover, the “reward-related behavior (in words)” value in series [5] (0.5 mg/kg nicotine plus 1.0 mg/kg VBJ104, p < 0.0001 vs saline, not vs nicotine alone) is “significant CPP compared to saline”. Besides, the CPP score in series [5] (female mice, 0.5 mg/kg nicotine plus 0.5 mg/kg VBJ104, intraperitoneal) is listed as 269.8. The CPP score in series [5] (male mice, 0.5 mg/kg nicotine plus 0.5 mg/kg VBJ104, intraperitoneal) was found to be 261.5.

`O=C(NC1CCCCC1)c1ccc(-c2ccccc2)cc1` [VBJ032]: the “concentration at which maximum increase occurs” value in series [3] (setting [8]) was determined as 50 µM. Further, the concentration for half-maximal inhibition (IC50) in series [6] was 49000 ± 1000 nM.

In the case of `O=C(NC1CCCCCCC1)c1ccc(-c2ccccc2)cc1` [VBJ051], in series [3] (setting [8]), the “concentration at which maximum increase occurs” value came to 50 µM. Also, the IC50 in series [6] is 62 ± 1 nM.

With `O=C(NC1CCc2ccccc2C1)c1ccc(-c2ccccc2)cc1` (stereo not drawn) [VBJ109], the “concentration at which maximum increase occurs” value in series [3] (setting [8]) turned out to be 50 µM. In series [6], the IC50 was 52 ± 1 nM.

One may read the half-life as the time needed for the level to fall by half in the phase considered. The term efflux ratio denotes the permeability from basolateral to apical divided by that in the opposite direction, in the common usage. The term Papp denotes a coefficient for how fast a substance crosses the barrier. As usually defined, the share remaining is what is left of the initial amount, in per cent. In general, IC50 refers to the concentration at which inhibition is half-maximal.
